Test results published in patent US12018267B2, “Plants having increased tolerance to herbicides” (BASF SE, priority 2015, dated 2024).

Assays:
[1] = test system: O. sativa Volano-M3-CESA1 and CESA3 mutants; assay: Greenhouse foliar application, crop injury on tilled Rice M3 generation cellulose synthase mutants (Table E10-1); format: in vivo, Oryza sativa; conditions: foliar application 250 g ai/ha
Text: (§1) Oryza sativa M2 Volano is a cellulose biosynthesis inhibitor susceptible rice risotto population that was subjected to sodium azide seed mutagenesis but was not tilled nor selected for CESA mutations. O. sativa Volano-M3-CESA1 and CESA3 mutants were selected from a subpopulation of O. sativa M2 Volano by sequencing CESA gene sequences in M2 plants and maintaining (producing seed through selfing) those individuals containing key mutations in these genes. The tolerance of the M3 CESA1 and CESA3 mutants was assessed using 6-(1-fluorocyclopentyl)-N2-(2,3,5,6-tetrafluorophenyl)-1,3,5-triazine-2,4-diamine, together with 1.0% DASH® EC adjuvant (BASF). The tolerance of M4 CESA1 and CESA3 mutants was assessed using 6-cyclopentyl-N4-(2,3,4,5,6-pentafluorophenyl)-1,3,5-triazine-2,4-diamine, together with 1.0% DASH® EC adjuvant (BASF).
M3 seed, which were harvested from tilled and selected individuals containing mutations in the CESA1 and CESA3 genes, were grown in the greenhouse under natural light conditions supplemented with 400 W sodium halide lamps under a 16 hr day length. Day/night temperatures were 26 and 20° C., respectively. The number of M3 plants from each line varied between 2 and 16, depending on seed availability and germination. A non-selective CBI, azine 6-(1-fluorocyclopentyl)-N2-(2,3,5,6-tetrafluorophenyl)-1,3,5-triazine-2,4-diamine, formulated with 1.0% DASH in a water volume of 375 L/ha was applied early post-emergent (one to two leaf stage) at a rate of 250 g ai/ha to M3 CESA1 and CESA3 mutant rice plants growing in soil in the greenhouse. Only plants originating from lines having more than four seeds were subjected to herbicide treatment. CESA mutant lines with four or fewer seeds were selfed for an additional generation and then tested at the M4 generation with 6-cyclopentyl-N4-(2,3,4,5,6-pentafluorophenyl)-1,3,5-triazine-2,4-diamine. M4 plants were grown under similar conditions as M3 plants and treated with 250 g ai/ha or 500 g ai/ha of 6-cyclopentyl-N4-(2,3,4,5,6-pentafluorophenyl)-1,3,5-triazine-2,4-diamine. […] Plants without any symptoms were recorded as “0%” injury. Increasing levels of reduced leaf mass and reduced stalk stiffness, with respect to the untreated control plants, were recorded in the range of “1 to 49%” injury. Increasing levels of leaf abnormalities and leaf necrosis, along with increased levels of lodging, relative to the untreated control plants, were recorded in the range of “50 to 85%” injury. Dead or dying plants with necrosis of the apex and severe lodging were recorded between “86-100%”. Data on individual plants was assessed and recorded due to the low number of individuals per line and the fact that the CESA mutations in the M2 generation were heterozygous and therefore segregating at the M3 and M4 generations. […]

[2] = test system: Rice M4 CESA1 and CESA3 mutants; assay: Greenhouse foliar application, crop injury on tilled Rice M4 generation cellulose synthase mutants (Table E10-2); format: in vivo, Oryza sativa
Text: as §1
M3 seed, which were harvested from tilled and selected individuals containing mutations in the CESA1 and CESA3 genes, were grown in the greenhouse under natural light conditions supplemented with 400 W sodium halide lamps under a 16 hr day length. Day/night temperatures were 26 and 20° C., respectively. The number of M3 plants from each line varied between 2 and 16, depending on seed availability and germination. A non-selective CBI, azine 6-(1-fluorocyclopentyl)-N2-(2,3,5,6-tetrafluorophenyl)-1,3,5-triazine-2,4-diamine, formulated with 1.0% DASH in a water volume of 375 L/ha was applied early post-emergent (one to two leaf stage) at a rate of 250 g ai/ha to M3 CESA1 and CESA3 mutant rice plants growing in soil in the greenhouse. Only plants originating from lines having more than four seeds were subjected to herbicide treatment. CESA mutant lines with four or fewer seeds were selfed for an additional generation and then tested at the M4 generation with 6-cyclopentyl-N4-(2,3,4,5,6-pentafluorophenyl)-1,3,5-triazine-2,4-diamine. M4 plants were grown under similar conditions as M3 plants and treated with 250 g ai/ha or 500 g ai/ha of 6-cyclopentyl-N4-(2,3,4,5,6-pentafluorophenyl)-1,3,5-triazine-2,4-diamine. Previous kill curve greenhouse tests had identified that a rate of 250 g ai/ha of 6-(1-fluorocyclopentyl)-N2-(2,3,5,6-tetrafluorophenyl)-1,3,5-triazine-2,4-diamine and a rate of 250 g ai/ha 6-cyclopentyl-N4-(2,3,4,5,6-pentafluorophenyl)-1,3,5-triazine-2,4-diamine, both with 1.0% DASH, were sufficient doses to kill O. sativa M2 Volano check plants. […] Plants were assessed for crop injury, using a scale from 0% injury to 100% injury, at 11 and 21 days after treatment (DAT) for M3 plants applied with 6-(1-fluorocyclopentyl)-N2-(2,3,5,6-tetrafluorophenyl)-1,3,5-triazine-2,4-diamine and 36 DAT for M4 plants applied with 6-cyclopentyl-N4-(2,3,4,5,6-pentafluorophenyl)-1,3,5-triazine-2,4-diamine. Plants without any symptoms were recorded as “0%” injury. Increasing levels of reduced leaf mass and reduced stalk stiffness, with respect to the untreated control plants, were recorded in the range of “1 to 49%” injury. Increasing levels of leaf abnormalities and leaf necrosis, along with increased levels of lodging, relative to the untreated control plants, were recorded in the range of “50 to 85%” injury. Dead or dying plants with necrosis of the apex and severe lodging were recorded between “86-100%”. Data on individual plants was assessed and recorded due to the low number of individuals per line and the fact that the CESA mutations in the M2 generation were heterozygous and therefore segregating at the M3 and M4 generations. […]

[3] = Rice M4 OsCesA1 S827N (SEQ ID 51), parental plant Hom, 250 g ai/ha
[4] = Rice M4 OsCesA1 T952I (SEQ ID 51), parental plant Het, 500 g ai/ha

SMILES | Crop Injury Assessment (%) at 20 DAT ([1]; Rice M3 OsCESA1 A1066T (SEQ ID 51), parental plant Het) [%] | Crop Injury Assessment (%) at 20 DAT ([1]; Rice M3 OsCESA1 S827N (SEQ ID 51), parental plant Het) [%] | Crop Injury Assessment (%) at 20 DAT ([1]; Rice M3 OsCESA1 V9231 (SEQ ID 51), parental plant Het) [%] | Crop Injury Assessment (%) at 20 DAT ([1]; Rice M3 OsCESA3 V1022L (SEQ ID 55), parental plant Hom) [%] | Crop injury assessment (%) at 23 DAT [2, 3] [%] | Crop injury assessment (%) at 36 DAT [2, 3] [%] | Crop injury assessment (%) at 23 DAT ([2]; Rice M4 OsCesA1 T952I (SEQ ID 51), parental plant Het, 250 g ai/ha) [%] | Crop injury assessment (%) at 23 DAT [2, 4] [%] | Crop injury assessment (%) at 36 DAT [2, 4] [%]
Nc1nc(Nc2c(F)c(F)cc(F)c2F)nc(C2(F)CCCC2)n1 [6-(1-fluorocyclopentyl)-N2-(2,3,5,6-tetrafluorophenyl)-1,3,5-triazine-2,4-diamine] | 10 | 0 | 0 | 20 | – | – | – | – | –
Nc1nc(Nc2c(F)c(F)c(F)c(F)c2F)nc(C2CCCC2)n1 [6-cyclopentyl-N4-(2,3,4,5,6-pentafluorophenyl)-1,3,5-triazine-2,4-diamine] | – | – | – | – | 0 | 0 | 0 | 10 | 10
